Data taken from ChEMBL document CHEMBL1201862, “PubChem BioAssay data set” (2004).
Activity calls are given as the source filed them.

Assays:
[1] = biological target: Fructose-bisphosphate aldolase (Mycobacterium tuberculosis, UniProt P9WQA3); assay: Fluorescence-based biochemical high throughput dose response assay for inhibitors of the fructose-bisphosphate aldolase (FBA) of M. tuberculosis.; type: functional
H9c2 = assay: cells; type: functional, cell-based; details: Rattus norvegicus, H9c2, Myocardium;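 note: confirmatory concentration-response retest of ultra-high-throughput screening hits for modulation of myocardial damage; cell death induced by hydrogen peroxide oxidative stress; compound pretreatment for 60 min then peroxide exposure for 2 h; potency is for protecting the cells against peroxide damage rather than for killing them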
Protein S100-A4 = Protein S100-A4 (Homo sapiens, UniProt P26447); assay: S100A4-myosin IIA binding inhibitor potency, dose response, biochemical, fluorescence polarization, cherry-picked hits (AID 687001); type: functional
Chain of Protein S100-A4 (P26447 whole entry): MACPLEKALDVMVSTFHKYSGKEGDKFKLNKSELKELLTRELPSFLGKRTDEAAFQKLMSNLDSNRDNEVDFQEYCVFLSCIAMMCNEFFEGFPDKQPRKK

[2] = biological target: T1, Heat shock factor protein 1 (Mus musculus, UniProt P38532); assay: HSF1 potentiators in luciferase reporter cells, confirmation, cell-based, NIH3T3, luminescence, dose retest (AID 435004); type: functional;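 note: stress induced by proteasome inhibitor MG132 added 30 min after compound; luciferase reporter driven by HSF1 response element in NIH3T3 cells; actives raise luminescence as potentiators of the MG132 stress response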
T1 sequence (P38532 whole entry): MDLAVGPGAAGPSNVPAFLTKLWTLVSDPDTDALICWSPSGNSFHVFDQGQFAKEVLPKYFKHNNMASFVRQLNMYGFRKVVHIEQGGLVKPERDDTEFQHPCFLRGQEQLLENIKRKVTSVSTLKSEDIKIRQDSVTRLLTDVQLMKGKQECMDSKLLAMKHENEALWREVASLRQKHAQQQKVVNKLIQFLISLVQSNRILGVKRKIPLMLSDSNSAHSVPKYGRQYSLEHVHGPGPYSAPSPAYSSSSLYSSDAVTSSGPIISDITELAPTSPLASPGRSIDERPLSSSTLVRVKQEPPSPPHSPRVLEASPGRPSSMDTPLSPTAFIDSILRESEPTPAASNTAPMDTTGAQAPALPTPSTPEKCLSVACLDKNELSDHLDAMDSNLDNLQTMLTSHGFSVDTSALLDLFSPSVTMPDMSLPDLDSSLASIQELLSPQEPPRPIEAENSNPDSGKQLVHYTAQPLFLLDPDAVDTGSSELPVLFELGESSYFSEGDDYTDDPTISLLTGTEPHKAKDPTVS

[3] = biological target: T2, Corticotropin-releasing factor receptor 2/Corticotropin-releasing factor-binding protein (Homo sapiens, UniProt P24387+Q13324); assay: activators of CRF receptor 2 with binding protein – uHTS hits, confirmation (AID 602473); type: functional; details: read-out: EC50_Mean
T2 sequence (Q13324 whole entry): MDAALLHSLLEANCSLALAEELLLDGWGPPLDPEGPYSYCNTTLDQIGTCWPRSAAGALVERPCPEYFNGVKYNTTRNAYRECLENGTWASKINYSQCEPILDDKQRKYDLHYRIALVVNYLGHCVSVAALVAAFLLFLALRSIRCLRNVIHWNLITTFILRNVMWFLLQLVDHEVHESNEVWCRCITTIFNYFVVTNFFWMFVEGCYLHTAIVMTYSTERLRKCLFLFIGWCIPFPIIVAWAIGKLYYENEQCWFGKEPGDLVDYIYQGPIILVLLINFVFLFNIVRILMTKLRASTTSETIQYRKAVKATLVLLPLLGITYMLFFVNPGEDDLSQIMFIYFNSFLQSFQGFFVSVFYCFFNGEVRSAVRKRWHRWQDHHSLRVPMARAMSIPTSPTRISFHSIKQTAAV
T2 sequence (P24387 whole entry): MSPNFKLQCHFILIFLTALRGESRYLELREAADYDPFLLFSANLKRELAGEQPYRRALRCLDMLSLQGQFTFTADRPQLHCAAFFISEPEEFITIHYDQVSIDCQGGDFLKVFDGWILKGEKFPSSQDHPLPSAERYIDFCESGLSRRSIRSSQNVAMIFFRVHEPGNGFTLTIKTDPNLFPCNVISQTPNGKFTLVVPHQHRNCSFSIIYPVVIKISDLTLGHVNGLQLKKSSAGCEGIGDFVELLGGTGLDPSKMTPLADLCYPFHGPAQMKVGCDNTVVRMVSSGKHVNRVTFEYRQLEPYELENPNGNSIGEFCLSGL

Beta-galactosidase = Beta-galactosidase (Escherichia coli, UniProt Q8VNN2); assay: Dose response counterscreen for EBI2 assay utilizing the enzyme, b-galactosidase.; type: functional
Chain of Beta-galactosidase (Q8VNN2 whole entry): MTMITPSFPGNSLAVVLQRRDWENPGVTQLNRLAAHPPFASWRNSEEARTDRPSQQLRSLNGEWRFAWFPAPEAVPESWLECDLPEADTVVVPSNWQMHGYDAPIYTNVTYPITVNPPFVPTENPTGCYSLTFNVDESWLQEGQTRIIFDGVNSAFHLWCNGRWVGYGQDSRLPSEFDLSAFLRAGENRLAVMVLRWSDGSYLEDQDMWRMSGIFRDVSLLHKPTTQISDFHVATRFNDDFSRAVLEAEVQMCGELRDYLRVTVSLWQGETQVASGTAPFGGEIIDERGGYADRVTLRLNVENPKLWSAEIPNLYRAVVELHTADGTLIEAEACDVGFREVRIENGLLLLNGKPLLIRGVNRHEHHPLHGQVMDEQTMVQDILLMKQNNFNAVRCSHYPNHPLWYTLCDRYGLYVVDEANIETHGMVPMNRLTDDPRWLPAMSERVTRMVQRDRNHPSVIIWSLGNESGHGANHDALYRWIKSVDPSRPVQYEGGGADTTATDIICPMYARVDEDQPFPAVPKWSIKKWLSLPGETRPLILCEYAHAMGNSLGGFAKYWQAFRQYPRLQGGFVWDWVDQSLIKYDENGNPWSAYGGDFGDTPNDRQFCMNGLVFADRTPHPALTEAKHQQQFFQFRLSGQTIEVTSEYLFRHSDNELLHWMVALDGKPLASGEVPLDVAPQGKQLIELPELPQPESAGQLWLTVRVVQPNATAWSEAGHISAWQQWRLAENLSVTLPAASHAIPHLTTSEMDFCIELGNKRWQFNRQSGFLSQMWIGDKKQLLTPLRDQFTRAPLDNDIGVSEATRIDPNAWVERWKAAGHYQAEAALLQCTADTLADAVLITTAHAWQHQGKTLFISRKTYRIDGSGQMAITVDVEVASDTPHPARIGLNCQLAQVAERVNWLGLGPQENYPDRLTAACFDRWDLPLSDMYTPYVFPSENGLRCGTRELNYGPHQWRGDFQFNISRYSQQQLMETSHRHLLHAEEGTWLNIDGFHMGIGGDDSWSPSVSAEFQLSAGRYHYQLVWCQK

Vero = assay: Vero cell toxicity, dose response, cytotoxicity control, plate reader, cherry-pick samples (AID 687020); type: functional, cell-based; details: Chlorocebus sabaeus
BHK-21 = assay: BHK-21 cell toxicity, dose response, cytotoxicity control, plate reader, cherry-pick samples (AID 687030); type: functional, cell-based; details: Mesocricetus auratus
A549 = assay: A549 cell toxicity, dose response, cytotoxicity control, plate reader, cherry-pick samples (AID 687028); type: functional, cell-based; details: Homo sapiens
HeLa = assay: HeLa cell cytotoxicity, dose response, cytotoxicity control, ATP luminescence, cherry-pick samples (AID 687004); type: functional, cell-based; details: Homo sapiens
HepG2 = assay: HepG2 Cytotoxicity Assay Measured in Cell-Based System Using Plate Reader - 7071-02_Inhibitor_Dose_CherryPick_Activity.; type: functional; details: Homo sapiens
[4] = T. cruzi growth inhibition in host cells, dose response, cell-based, plate reader, dry powder, set 2 (AID 652275); type: functional
[5] = Late stage assay provider results from the probe development effort to identify inhibitors of the Plasmodium falciparum M17 Leucine Aminopeptidase (M17LAP): radiolabel-based cell-based dose response assay to identify compounds that inhibit P. falciparum growth in RBCs Set 2.; type: functional

Chain of Fructose-bisphosphate aldolase (P9WQA3 whole entry): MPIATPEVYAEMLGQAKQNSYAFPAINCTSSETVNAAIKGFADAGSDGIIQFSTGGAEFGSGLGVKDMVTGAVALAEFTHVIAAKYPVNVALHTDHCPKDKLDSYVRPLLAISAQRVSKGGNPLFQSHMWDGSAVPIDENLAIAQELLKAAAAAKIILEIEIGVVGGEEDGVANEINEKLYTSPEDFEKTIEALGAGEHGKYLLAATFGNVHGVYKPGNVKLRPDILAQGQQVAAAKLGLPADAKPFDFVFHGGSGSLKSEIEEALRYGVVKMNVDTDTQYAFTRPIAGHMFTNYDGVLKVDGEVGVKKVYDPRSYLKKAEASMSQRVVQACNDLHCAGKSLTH

Structure (SMILES): N#Cc1c(-c2ccco2)cc(C2CC2)nc1N
- IC50 [1]: 1.43 µM (active)

Structure (SMILES): O=C1C=C(N2CCOCC2)c2cccc3cccc1c23
- IC50 (H9c2): 18.2 µM (active)
- AC50 (Protein S100-A4): 4.83 µM (active)

Structure (SMILES): CC1(C)CC(=O)C(=CNc2cc(C(=O)c3ccccc3)ccc2/N=C/C2=C(O)CC(C)(C)CC2=O)C(=O)C1
- EC50 [2]: 56.1 µM (active)
- EC50 [3]: > 53 µM (inactive)
- IC50 (Beta-galactosidase): 7.97 µM (active)

Structure (SMILES): COc1ccc(-c2cn(CC[C@@H]3CC[C@H](NC(=O)Nc4ccc(F)cc4)[C@H](CO)O3)nn2)cc1
- AC50 (Vero): 24.2 µM (active)
- AC50 (BHK-21): 38.8 µM (active)
- AC50 (A549): 21.3 µM (active)

Structure (SMILES): CN(C[C@H]1N[C@@H](CO)[C@H]1c1ccc(-c2cccc(F)c2)cc1)S(C)(=O)=O
- AC50 (HeLa): 20.3 µM (active)
- AC50 (HepG2): 23.7 µM (active)

Structure (SMILES): CC(C)N1CC2(CN(CC3CCCCC3)C2)Oc2c(NC(=O)c3ccncc3)cccc2C1=O
- AC50 [4]: 1.18 µM (active)

Structure (SMILES): CCCCOc1ccc(C(C)C(=O)NO)cc1 (stereo not drawn)
- IC50 [5]: 12.9 µM (inactive)
